Assay results taken from patent US10287276B2, “Heteroaryl-1,2,4-triazole and heteroaryl-tetrazole compounds for controlling ectoparasites” (Elanco Tiergesundheit AG, priority 2016, dated 2019).

How the values were obtained:
[1] = system: Ctenocephalides Felis (Cat Flea); assay: Activity in vitro against Ctenocephalides felis (cat flea), Assay A; settings: Ctenocephalides felis; at 100 ppm; adult fleas fed on treated blood for 24 h; dead fleas counted; read-out: efficacy (EC80)
Description: Activity In Vitro Against Ctenocephalides Felis (Cat Flea)—Assay A
A mixed adult population of fleas is placed in a suitably formatted 96-well plate allowing fleas to access and feed on treated blood via an artificial feeding system. Fleas are fed on treated blood for 24 h, after which the compound effect is recorded. Insecticidal activity is determined on the basis of the number of dead fleas recovered from the feeding system.

[2] = system: Rhipicephalus sanguineus (Dog Tick); assay: Activity in vitro against Rhipicephalus sanguineus (dog tick), Assay A, contact test; settings: Rhipicephalus sanguineus, 168 h, at 100 ppm, adult ticks, 28° C. and 80% relative humidity for 7 days, read-out: efficacy (EC80)
Description: Activity In Vitro Against Rhipicephalus sanguineus (Dog Tick)—Assay A
A contact test is performed by pre-coating microplate with serial dilution of compound allowing evaluating anti-parasitic activity by contact against ticks. A mixed adult tick population is then distributed to each well of the plate and incubated at 28° C. and 80% relative humidity for 7 days, during which the effect of the test compound is monitored. Acaricidal activity is confirmed if and when adult ticks are dead.

[3] = system: Lucilla Cuprina (Australian sheep blowfly); assay: Activity in vitro against Lucilla cuprina (Australian sheep blowfly), Assay A; settings: Lucilia cuprina, 96 h; at 32 ppm; eggs on agar-based medium, 4 days at 28° C. and 60% relative humidity; read-out: efficacy (EC80)
Description: Activity in vitro against Lucilla Cuprina (Australian sheep blowfly)—Assay A
Freshly laid blowfly eggs are used to seed a suitably formatted microplate containing the test substances to be evaluated for antiparasitic activity. Each compound is tested by serial dilution in order to determine its minimum efficacy dose. The test compounds are embedded in an agar-based nutritive medium allowing the full development of the eggs into 3rd instar larvae. The incubation lasts for 4 days at 28° C. and 60% relative humidity. Egg-hatching and ensuing larval development are also recorded to identify a possible growth-regulating activity.

[4] = system: Engorged Female Rhipicephalus microplus (Cattle Tick); assay: Activity in vitro against engorged female Rhipicephalus microplus (cattle tick), contact test; settings: 672 h, organophosphorous-resistant Ultimo strain, evaluation 28 days later on mortality, oviposition and hatched larvae, read-out: efficacy (EC80)
Description: Activity In Vitro Against Engorged Female Rhipicephalus microplus (Cattle Tick)
A contact test is performed by pre-coating 6-well microplates with serial dilution of the compound to be evaluated for anti-parasitic activity. 10 engorged female ticks of the organophosphorous-resistant Ultimo strain are distributed to each well in triplicates. Plates are then incubated at 28° C. and 80% relative humidity. Evaluation takes place 28 days later based on mortality, oviposition and hatched larvae. […] Activity In Vivo Against Rhipicephalus sanguineus Nymphs on Mongolian Gerbils (Meriones unguiculatus) (Spray Application)

Lice (Polyplax serrata) = assay: Activity in vivo against lice (Polyplax serrata) in mice (topical); settings: pour-on application, live lice on day +4 and +14, Henderson & Tilton formula, read-out: efficacy (EC90)
Description: Activity In Vivo Against Lice (Polyplax serrata) in Mice (Topical) Mice naturally infected with P. serrata are treated with the formulated test compound on day 0 by pour-on application. On day +4 and +14, efficacy is evaluated by counting the number of live lice under a binocular. Efficacy at the two time points is expressed as a comparison of lice numbers counted on the same mouse before treatment, using the Henderson & Tilton formula, taking also into account lice numbers found on mice treated with the empty formulation (placebo group): [formula] n=number of lice, T=treated group, Co=control/placebo group.

SMILES | pest or weed control at 100 ppm [1] | pest or weed control at 100 ppm [2] | pest or weed control at 32 ppm [3] | pest or weed control at 200 ppm [4] | inhibition in vivo at 32 mg/kg (Lice (Polyplax serrata))
CC(c1ncnn1-c1ccccn1)N(CC1CC1)C(=S)c1cccc(C#N)c1 (centres unmarked) [Example 47, 3-Cyano-N-(cyclopropylmethyl)-N-[1-[2-(2-pyridyl)-1,2,4-triazol-3-yl]ethyl]benzenecarbothioamide] | > 80% | > 80% | – | – | –
CC(c1ncnn1-c1ccccn1)N(CC1CC1)C(=O)c1cc(Cl)cc(Cl)c1 (centres unmarked) [Example 2, 3,5-Dichloro-N-(cyclopropylmethyl)-N-[1-[2-(2-pyridyl)-1,2,4-triazol-3-yl]ethyl]benzamide] | > 80% | > 80% | > 80% | > 80% | –
C#CCN(C(=O)c1cc(C(F)(F)F)cc(C(F)(F)F)c1)C(C)c1ncnn1-c1ccccn1 (centres unmarked) [Example 15] | > 80% | > 80% | > 80% | > 80% | > 90%
C#CCN(C(=O)c1cncc(C(F)(F)F)c1)C(C)c1ncnn1-c1ncccn1 (centres unmarked) [Example 32, N-Prop-2-ynyl-N-[1-(2-pyrimidin-2-yl-1,2,4-triazol-3-yl)ethyl]-5-(trifluoromethyl)pyridine-3-carboxamide] | > 80% | > 80% | > 80% | – | –
CC(c1ncnn1-c1ncccn1)N(CCCF)C(=O)c1cc(C(F)(F)F)cc(C(F)(F)F)c1 (centres unmarked) [Example 21, N-(3-Fluoropropyl)-N-[1-(2-pyrimidin-2-yl-1,2,4-triazol-3-yl)ethyl]-3,5-bis(trifluoromethyl)benzamide] | > 80% | – | > 80% | > 80% | > 90%
C#CCN(C(=O)c1cc(Cl)cc(OC(F)(F)F)c1)C(C)c1ncnn1-c1ncccn1 (centres unmarked) [Example 36, 3-Chloro-N-prop-2-ynyl-N-[1-(2-pyrimidin-2-yl-1,2,4-triazol-3-yl)ethyl]-5-(trifluoromethoxy)-benzamide] | > 80% | > 80% | > 80% | > 80% | > 90%
C#CCN(C(=O)c1cncc(C(F)(F)F)c1)[C@@H](C)c1ncnn1-c1ncccn1 [Example 43, N-Prop-2-ynyl-N-[(1S)-1-(2-pyrimidin-2-yl-1,2,4-triazol-3-yl)ethyl]-5-(trifluoromethyl)pyridine-3-carboxamide] | > 80% | > 80% | > 80% | – | –
C#CCN(C(=O)c1cc(C(F)(F)F)cc(C(F)(F)F)c1)[C@@H](C)c1ncnn1-c1ncccn1 [Example 46, N-Prop-2-ynyl-N-[(1S)-1-(2-pyrimidin-2-yl-1,2,4-triazol-3-yl)ethyl]-3,5-bis(trifluoromethyl)benzamide] | > 80% | – | > 80% | > 80% | –
Cc1nc(C(C)N(CC2CC2)C(=O)c2cccc(C#N)c2)n(-c2ccccn2)n1 (centres unmarked) [Example 34, 3-Cyano-N-(cyclopropylmethyl)-N-[1-[5-methyl-2-(2-pyridyl)-1,2,4-triazol-3-yl]ethyl]benzamide] | > 80% | > 80% | – | – | –
CC(c1ncnn1-c1ncccn1)N(CCF)C(=O)c1cncc(C(F)(F)F)c1 (centres unmarked) [Example 30, N-(2-Fluoroethyl)-N-[1-(2-pyrimidin-2-yl-1,2,4-triazol-3-yl)ethyl]-5-(trifluoromethyl)pyridine-3-carboxamide] | > 80% | > 80% | > 80% | – | > 90%
CC(c1ncnn1-c1ccccn1)N(CC1COC1)C(=O)c1cc(C(F)(F)F)cc(C(F)(F)F)c1 (centres unmarked) [Example 13, N-(Oxetan-3-ylmethyl)-N-[1-[2-(2-pyridyl)-1,2,4-triazol-3-yl]ethyl]-3,5-bis(trifluoromethyl)benzamide] | > 80% | > 80% | > 80% | – | –
CC(c1ncnn1-c1ncccn1)N(CCF)C(=O)c1cc(Cl)cc(OC(F)(F)F)c1 (centres unmarked) [Example 22, 3-Chloro-N-(2-fluoroethyl)-N-[1-(2-pyrimidin-2-yl-1,2,4-triazol-3-yl)ethyl]-5-(trifluoromethoxy)benzamide] | > 80% | – | > 80% | > 80% | –
CCCN(C(=O)c1cc(Cl)cc(Cl)c1)C(C)c1ncnn1-c1ccccn1 (centres unmarked) [Example 3] | > 80% | > 80% | > 80% | > 80% | –
CC(CN(CC1CC1)C(=O)c1cc(C(F)(F)F)cc(C(F)(F)F)c1)c1ncnn1-c1ccccn1 (centres unmarked) [Example 42, 3-(Cyclopropylmethyl)-N-[2-[2-(2-pyridyl)-1,2,4-triazol-3-yl]propyl]-3,5-bis(trifluoromethyl)benzamide] | > 80% | > 80% | > 80% | – | –
CC(c1ncnn1-c1ccccn1)N(Cc1cccc(Cl)c1)C(=O)c1cccc(C#N)c1 (centres unmarked) [Example 5, N-[(3-Chlorophenyl)methyl]-3-cyano-N-[1-[2-(2-pyridyl)-1,2,4-triazol-3-yl]ethyl]benzamide] | > 80% | – | – | – | –
CC(c1ncnn1-c1ncccn1)N(CCC(F)(F)F)C(=O)c1cc(Cl)cc(OC(F)(F)F)c1 (centres unmarked) [Example 27, 3-Chloro-N-[1-(2-pyrimidin-2-yl-1,2,4-triazol-3-yl)ethyl]-5-(trifluoromethoxy)-N-(3,3,3-trifluoropropyl)benzamide] | > 80% | > 80% | > 80% | – | > 90%
CC(c1nnnn1-c1ncccn1)N(CC1CC1)C(=O)c1cc(C(F)(F)F)cc(C(F)(F)F)c1 (centres unmarked) [Example 33, N-(Cyclopropylmethyl)-N-[1-(1-pyrimidin-2-yltetrazol-5-yl)ethyl]-3,5-bis(trifluoromethyl)benzamide] | – | – | > 80% | – | –
CC(c1ncnn1-c1ccccn1)N(CC1CC1)C(=O)c1cc(Cl)cc(C(F)(F)F)c1 (centres unmarked) [Example 6, 3-Chloro-N-(cyclopropylmethyl)-N-[1-[2-(2-pyridyl)-1,2,4-triazol-3-yl]ethyl]-5-(trifluoromethyl)benzamide] | > 80% | > 80% | > 80% | > 80% | –
C#CCN(C(=O)c1cc(Cl)cc(C(F)(F)F)c1)C(C)c1ncnn1-c1ccccn1 (centres unmarked) [Example 7, 3-Chloro-N-prop-2-ynyl-N-[1-[2-(2-pyridyl)-1,2,4-triazol-3-yl]ethyl]-5-(trifluoromethyl)benzamide] | > 80% | – | > 80% | > 80% | > 90%
CC(c1ncnn1-c1ncccn1)N(CCCF)C(=O)c1cc(Cl)cc(OC(F)(F)F)c1 (centres unmarked) [Example 25, 3-Chloro-N-(3-fluoropropyl)-N-[1-(2-pyrimidin-2-yl-1,2,4-triazol-3-yl)ethyl]-5-(trifluoromethoxy)benzamide] | > 80% | – | > 80% | > 80% | > 90%
CC(c1ncnn1-c1ccccn1)N(CC1CC1)C(=O)c1cccc(OC(F)(F)F)c1 (centres unmarked) [Example 4, N-(Cyclopropylmethyl)-N-[1-[2-(2-pyridyl)-1,2,4-triazol-3-yl]ethyl]-3-(trifluoromethoxy)benzamide] | > 80% | > 80% | > 80% | > 80% | –
CC(c1ncnn1-c1ccccn1)N(CC1CC1(Cl)Cl)C(=O)c1cc(C(F)(F)F)cc(C(F)(F)F)c1 (centres unmarked) [Example 17, N-[(2,2-Dichlorocyclopropyl)methyl]-N-[1-[2-(2-pyridyl)-1,2,4-triazol-3-yl]ethyl]-3,5-bis(trifluoromethyl)benzamide] | > 80% | – | > 80% | > 80% | > 90%
